Data from patent publication US20250353891A1 (MEDIMMUNE LIMITED, priority 2022, published 2025).
Starred links: 1 amine or outer side, 2 acyl side, 3 side chain; linkers in the order of their positions; H or OH if unused. Non-standard residues stand in square brackets, D forms with d. Residues, ends and D or L forms follow the SMILES beside them. Groups on a side chain read outwards from the residue. *: point of attachment. C20 diacid = O=C(O)CCCCCCCCCCCCCCCCCCC(=O)*; C18 diacid = O=C(O)CCCCCCCCCCCCCCCCC(=O)*; γGlu = O=C(O)[C@H](CCC(=O)[*:2])N[*:1]; αMeF = C[C@](N)(Cc1ccccc1)C(=O)O; AEEA = NCCOCCOCC(=O)O; Aib = CC(C)(N)C(=O)O

Key:
[1] = molecular target: human glucagon receptor (hGCGR) (Homo sapiens, UniProt P47871); test: cAMP production (HTRF) in CHO cells expressing hGCGR; format: cell-based; design: expressed in transfected cells; conditions: Table 7, peptides modified at position 20; cAMP in CHO hGCGR cells; geometric mean; read-out: hGluc-R EC50
human glucagon receptor (hGCGR), sequence (P47871 26-477): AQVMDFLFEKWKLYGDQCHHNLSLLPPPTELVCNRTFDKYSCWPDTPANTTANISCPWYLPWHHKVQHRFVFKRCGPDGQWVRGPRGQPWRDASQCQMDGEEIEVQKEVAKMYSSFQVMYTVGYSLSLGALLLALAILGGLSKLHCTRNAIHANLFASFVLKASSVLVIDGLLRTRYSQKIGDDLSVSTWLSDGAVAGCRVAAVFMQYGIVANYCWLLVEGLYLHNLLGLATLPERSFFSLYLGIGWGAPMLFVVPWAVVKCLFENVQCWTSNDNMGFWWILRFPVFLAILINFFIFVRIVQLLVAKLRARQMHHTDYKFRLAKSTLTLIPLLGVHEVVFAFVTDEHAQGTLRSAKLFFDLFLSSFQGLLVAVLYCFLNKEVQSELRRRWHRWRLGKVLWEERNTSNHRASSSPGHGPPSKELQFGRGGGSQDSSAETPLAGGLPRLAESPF
Procedure, shortened: (§1)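 Cells were resuspended in assay buffer at batch-optimized density, typically 1×10^5 cells/mL for hGLP-1R and 2×10^5 cells/mL for hGCGR. After 30 min incubation at room temperature with compound, cAMP was measured by two-step HTRF. EC50 values came from 4-parameter logistic fits of % Delta F.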

[2] = molecular target: human GLP-1 receptor (hGLP-1R) (Homo sapiens, UniProt P43220); test: cAMP production (HTRF) in CHO cells expressing hGLP-1R; format: cell-based; design: expressed in transfected cells; conditions: for EC50: Table 7, peptides modified at position 20, cAMP in CHO hGLP-1R cells, geometric mean, read-out: hGLP-1R EC50; for % Relative Potency Ratio: Table 7, % GLP-1R activity relative to GLP-1 / % GlucR activity relative to glucagon
human GLP-1 receptor (hGLP-1R), sequence (P43220 24-463): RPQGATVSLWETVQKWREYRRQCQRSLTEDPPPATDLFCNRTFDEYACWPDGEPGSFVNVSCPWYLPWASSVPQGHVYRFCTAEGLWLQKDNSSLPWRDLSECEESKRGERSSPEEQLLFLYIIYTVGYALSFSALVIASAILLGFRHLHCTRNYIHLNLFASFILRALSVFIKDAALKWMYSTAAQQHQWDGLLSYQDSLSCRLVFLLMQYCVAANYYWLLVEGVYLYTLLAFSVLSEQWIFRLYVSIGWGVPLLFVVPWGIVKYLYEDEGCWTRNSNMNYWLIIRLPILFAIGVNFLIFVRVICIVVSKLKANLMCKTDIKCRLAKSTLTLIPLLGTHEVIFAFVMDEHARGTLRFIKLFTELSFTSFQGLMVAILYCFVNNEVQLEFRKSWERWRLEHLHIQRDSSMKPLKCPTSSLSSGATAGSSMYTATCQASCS
Procedure, shortened: as §1

EC50 [1] | EC50 [2] | % Relative Potency Ratio [2] | SMILES
0.0313 nM | 0.0244 nM | 2.5 | CC[C@H](C)[C@H](NC(=O)C(C)(C)NC(=O)[C@H](CCC(N)=O)NC(=O)[C@@H](NC(=O)[C@](C)(Cc1ccccc1)NC(=O)[C@H](CC(=O)O)NC(=O)[C@H](CCCCNC(=O)CC[C@H](NC(=O)CC[C@H](NC(=O)CCCCCCCCCCCCCCCCC(=O)O)C(=O)O)C(=O)O)NC(=O)[C@H](C)NC(=O)[C@H](C)NC(=O)[C@H](CCCNC(=N)N)NC(=O)[C@H](CO)NC(=O)[C@H](CC(=O)O)NC(=O)[C@H](CC(C)C)NC(=O)[C@](C)(Cc1ccccc1)NC(=O)[C@H](CCCCN)NC(=O)[C@H](CO)NC(=O)[C@@H](NC(=O)[C@H](CC(=O)O)NC(=O)[C@H](CO)NC(=O)[C@@H](NC(=O)[C@](C)(Cc1ccccc1)NC(=O)[C@H](CO)NC(=O)CNC(=O)[C@H](Cc1c[nH]cn1)NC(=O)C(C)(C)NC(=O)[C@@H](N)Cc1c[nH]cn1)[C@@H](C)O)C(C)C)C(C)C)C(=O)N[C@@H](C)C(=O)N[C@@H](CC(N)=O)C(=O)N[C@H](C(N)=O)[C@@H](C)O [Peptide 270] (H-H[Aib]HGS[αMeF]TSDVSK[αMeF]LDSRAAK([γGlu-γGlu-C18 diacid])D[αMeF]VQ[Aib]IANT-NH2)
0.028 nM | 0.0546 nM | 1.0 | CC[C@H](C)[C@H](NC(=O)C(C)(C)NC(=O)[C@H](CCC(N)=O)NC(=O)[C@@H](NC(=O)[C@](C)(Cc1ccccc1)NC(=O)[C@H](CC(=O)O)NC(=O)[C@H](CCCCNC(=O)CC[C@H](NC(=O)CCCCCCCCCCCCCCCCC(=O)O)C(=O)O)NC(=O)[C@H](C)NC(=O)[C@H](C)NC(=O)[C@H](CCCNC(=N)N)NC(=O)[C@H](CO)NC(=O)[C@H](CC(=O)O)NC(=O)[C@H](CC(C)C)NC(=O)[C@](C)(Cc1ccccc1)NC(=O)[C@H](CCCCN)NC(=O)[C@H](CO)NC(=O)[C@@H](NC(=O)[C@H](CC(=O)O)NC(=O)[C@H](CO)NC(=O)[C@@H](NC(=O)[C@](C)(Cc1ccccc1)NC(=O)[C@H](CO)NC(=O)CNC(=O)[C@H](Cc1c[nH]cn1)NC(=O)C(C)(C)NC(=O)[C@@H](N)Cc1c[nH]cn1)[C@@H](C)O)C(C)C)C(C)C)C(=O)N[C@@H](C)C(=O)N[C@@H](CC(N)=O)C(=O)N[C@H](C(N)=O)[C@@H](C)O [Peptide 271] (H-H[Aib]HGS[αMeF]TSDVSK[αMeF]LDSRAAK([γGlu-C18 diacid])D[αMeF]VQ[Aib]IANT-NH2; N-terminus assumed)
0.0143 nM | 0.0157 nM | 1.8 | CC[C@H](C)[C@H](NC(=O)C(C)(C)NC(=O)[C@H](CCC(N)=O)NC(=O)[C@@H](NC(=O)[C@](C)(Cc1ccccc1)NC(=O)[C@H](CC(=O)O)NC(=O)[C@H](CCCCNC(=O)COCCOCCNC(=O)COCCOCCNC(=O)CCCCCCCCCCCCCCCCC(=O)O)NC(=O)[C@H](C)NC(=O)[C@H](C)NC(=O)[C@H](CCCNC(=N)N)NC(=O)[C@H](CO)NC(=O)[C@H](CC(=O)O)NC(=O)[C@H](CC(C)C)NC(=O)[C@](C)(Cc1ccccc1)NC(=O)[C@H](CCCCN)NC(=O)[C@H](CO)NC(=O)[C@@H](NC(=O)[C@H](CC(=O)O)NC(=O)[C@H](CO)NC(=O)[C@@H](NC(=O)[C@](C)(Cc1ccccc1)NC(=O)[C@H](CO)NC(=O)CNC(=O)[C@H](Cc1c[nH]cn1)NC(=O)C(C)(C)NC(=O)[C@@H](N)Cc1c[nH]cn1)[C@@H](C)O)C(C)C)C(C)C)C(=O)N[C@@H](C)C(=O)N[C@@H](CC(N)=O)C(=O)N[C@H](C(N)=O)[C@@H](C)O [Peptide 272] (H-H[Aib]HGS[αMeF]TSDVSK[αMeF]LDSRAAK([AEEA-AEEA-C18 diacid])D[αMeF]VQ[Aib]IANT-NH2)
0.0233 nM | 0.0221 nM | 2.1 | CC[C@H](C)[C@H](NC(=O)C(C)(C)NC(=O)[C@H](CCC(N)=O)NC(=O)[C@@H](NC(=O)[C@](C)(Cc1ccccc1)NC(=O)[C@H](CC(=O)O)NC(=O)[C@H](CCCCNC(=O)COCCOCCNC(=O)CCCCCCCCCCCCCCCCC(=O)O)NC(=O)[C@H](C)NC(=O)[C@H](C)NC(=O)[C@H](CCCNC(=N)N)NC(=O)[C@H](CO)NC(=O)[C@H](CC(=O)O)NC(=O)[C@H](CC(C)C)NC(=O)[C@](C)(Cc1ccccc1)NC(=O)[C@H](CCCCN)NC(=O)[C@H](CO)NC(=O)[C@@H](NC(=O)[C@H](CC(=O)O)NC(=O)[C@H](CO)NC(=O)[C@@H](NC(=O)[C@](C)(Cc1ccccc1)NC(=O)[C@H](CO)NC(=O)CNC(=O)[C@H](Cc1c[nH]cn1)NC(=O)C(C)(C)NC(=O)[C@@H](N)Cc1c[nH]cn1)[C@@H](C)O)C(C)C)C(C)C)C(=O)N[C@@H](C)C(=O)N[C@@H](CC(N)=O)C(=O)N[C@H](C(N)=O)[C@@H](C)O [Peptide 273] (H-H[Aib]HGS[αMeF]TSDVSK[αMeF]LDSRAAK([AEEA-C18 diacid])D[αMeF]VQ[Aib]IANT-NH2)
0.0313 nM | 0.0271 nM | 2.3 | CC[C@H](C)[C@H](NC(=O)C(C)(C)NC(=O)[C@H](CCC(N)=O)NC(=O)[C@@H](NC(=O)[C@](C)(Cc1ccccc1)NC(=O)[C@H](CC(=O)O)NC(=O)[C@H](CCCCNC(=O)COCCOCCNC(=O)CC[C@H](NC(=O)CC[C@H](NC(=O)CCCCCCCCCCCCCCCCC(=O)O)C(=O)O)C(=O)O)NC(=O)[C@H](C)NC(=O)[C@H](C)NC(=O)[C@H](CCCNC(=N)N)NC(=O)[C@H](CO)NC(=O)[C@H](CC(=O)O)NC(=O)[C@H](CC(C)C)NC(=O)[C@](C)(Cc1ccccc1)NC(=O)[C@H](CCCCN)NC(=O)[C@H](CO)NC(=O)[C@@H](NC(=O)[C@H](CC(=O)O)NC(=O)[C@H](CO)NC(=O)[C@@H](NC(=O)[C@](C)(Cc1ccccc1)NC(=O)[C@H](CO)NC(=O)CNC(=O)[C@H](Cc1c[nH]cn1)NC(=O)C(C)(C)NC(=O)[C@@H](N)Cc1c[nH]cn1)[C@@H](C)O)C(C)C)C(C)C)C(=O)N[C@@H](C)C(=O)N[C@@H](CC(N)=O)C(=O)N[C@H](C(N)=O)[C@@H](C)O [Peptide 274] (H-H[Aib]HGS[αMeF]TSDVSK[αMeF]LDSRAAK([AEEA-γGlu-γGlu-C18 diacid])D[αMeF]VQ[Aib]IANT-NH2)
0.175 nM | 0.111 nM | 3.1 | CC[C@H](C)[C@H](NC(=O)C(C)(C)NC(=O)[C@H](CCC(N)=O)NC(=O)[C@@H](NC(=O)[C@](C)(Cc1ccccc1)NC(=O)[C@H](CC(=O)O)NC(=O)[C@H](CCCCNC(=O)CC[C@H](NC(=O)CC[C@H](NC(=O)CCCCCCCCCCCCCCCCCCC(=O)O)C(=O)O)C(=O)O)NC(=O)[C@H](C)NC(=O)[C@H](C)NC(=O)[C@H](CCCNC(=N)N)NC(=O)[C@H](CO)NC(=O)[C@H](CC(=O)O)NC(=O)[C@H](CC(C)C)NC(=O)[C@](C)(Cc1ccccc1)NC(=O)[C@H](CCCCN)NC(=O)[C@H](CO)NC(=O)[C@@H](NC(=O)[C@H](CC(=O)O)NC(=O)[C@H](CO)NC(=O)[C@@H](NC(=O)[C@](C)(Cc1ccccc1)NC(=O)[C@H](CO)NC(=O)CNC(=O)[C@H](Cc1c[nH]cn1)NC(=O)C(C)(C)NC(=O)[C@@H](N)Cc1c[nH]cn1)[C@@H](C)O)C(C)C)C(C)C)C(=O)N[C@@H](C)C(=O)N[C@@H](CC(N)=O)C(=O)N[C@H](C(N)=O)[C@@H](C)O [Peptide 275] (H-H[Aib]HGS[αMeF]TSDVSK[αMeF]LDSRAAK([γGlu-γGlu-C20 diacid])D[αMeF]VQ[Aib]IANT-NH2)
